± gives the expanded uncertainty stated by the source.
Tests used:
[1] = xn = mol fraction of the nth substance listed; details: 100 kPa, Liquid; for speed of sound: Frequency=2 MHz, Linear variable-path acoustic interferometer; for mass density: Vibrating tube method
[2] = 100 kPa, Liquid; for speed of sound: Frequency=2 MHz, Linear variable-path acoustic interferometer; for mass density: Vibrating tube method

COCCO [2-methoxyethan-1-ol] + OCc1ccccc1
speed of sound ([1]; 298.15 K, x2 = 0): 1341.6 ± 8.2 m/s
mass density ([1]; 298.15 K, x2 = 0): 960.29 ± 4 kg/m3
mass density ([1]; 303.15 K, x2 = 0): 955.84 ± 4 kg/m3
speed of sound ([1]; 308.15 K, x2 = 0): 1302 ± 7.9 m/s
mass density ([1]; 308.15 K, x2 = 0): 951.16 ± 4 kg/m3
mass density ([1]; 313.15 K, x2 = 0): 946.49 ± 4 kg/m3
mass density ([1]; 318.15 K, x2 = 0): 941.89 ± 4 kg/m3

CCCCOCCO [2-butoxyethan-1-ol]
speed of sound ([2]; 298.15 K): 1305 ± 8 m/s
mass density ([2]; 298.15 K): 896.46 ± 4 kg/m3
mass density ([2]; 303.15 K): 892.22 ± 4 kg/m3
speed of sound ([2]; 308.15 K): 1275 ± 7.8 m/s
mass density ([2]; 308.15 K): 887.97 ± 4 kg/m3
mass density ([2]; 313.15 K): 883.7 ± 4 kg/m3
mass density ([2]; 318.15 K): 879.42 ± 4 kg/m3

OCc1ccccc1 [benzenemethanol] + CCOCCO
speed of sound ([1]; 298.15 K, x1 = 1): 1534.5 ± 9.3 m/s
mass density ([1]; 298.15 K, x1 = 1): 1041.05 ± 4 kg/m3
mass density ([1]; 303.15 K, x1 = 1): 1037.15 ± 4 kg/m3
speed of sound ([1]; 308.15 K, x1 = 1): 1496 ± 9.1 m/s
mass density ([1]; 308.15 K, x1 = 1): 1033.32 ± 4 kg/m3
mass density ([1]; 313.15 K, x1 = 1): 1029.46 ± 4 kg/m3
mass density ([1]; 318.15 K, x1 = 1): 1025.59 ± 4 kg/m3

CCOCCO [2-ethoxyethan-1-ol]
speed of sound ([2]; 298.15 K): 1301.4 ± 8 m/s
mass density ([2]; 298.15 K): 925.36 ± 4 kg/m3
mass density ([2]; 303.15 K): 920.72 ± 4 kg/m3
speed of sound ([2]; 308.15 K): 1274.8 ± 7.9 m/s
mass density ([2]; 308.15 K): 916.11 ± 4 kg/m3
mass density ([2]; 313.15 K): 911.47 ± 4 kg/m3
mass density ([2]; 318.15 K): 906.9 ± 4 kg/m3

OCc1ccccc1 [benzenemethanol]
speed of sound ([2]; 298.15 K): 1534.5 ± 9.3 m/s
mass density ([2]; 298.15 K): 1041.05 ± 4 kg/m3
mass density ([2]; 303.15 K): 1037.15 ± 4 kg/m3
speed of sound ([2]; 308.15 K): 1496 ± 9.1 m/s
mass density ([2]; 308.15 K): 1033.32 ± 4 kg/m3
mass density ([2]; 313.15 K): 1029.46 ± 4 kg/m3
mass density ([2]; 318.15 K): 1025.59 ± 4 kg/m3

OCc1ccccc1 [benzenemethanol] + CCCCOCCO
speed of sound ([1]; 298.15 K, x1 = 1): 1534.5 ± 9.3 m/s
mass density ([1]; 298.15 K, x1 = 1): 1041.05 ± 4 kg/m3
mass density ([1]; 303.15 K, x1 = 1): 1037.15 ± 4 kg/m3
speed of sound ([1]; 308.15 K, x1 = 1): 1496 ± 9.1 m/s
mass density ([1]; 308.15 K, x1 = 1): 1033.32 ± 4 kg/m3
mass density ([1]; 313.15 K, x1 = 1): 1029.46 ± 4 kg/m3
mass density ([1]; 318.15 K, x1 = 1): 1025.59 ± 4 kg/m3

COCCO [2-methoxyethan-1-ol]
speed of sound ([2]; 298.15 K): 1341.6 ± 8.2 m/s
mass density ([2]; 298.15 K): 960.29 ± 4 kg/m3
mass density ([2]; 303.15 K): 955.84 ± 4 kg/m3
speed of sound ([2]; 308.15 K): 1302 ± 7.9 m/s
mass density ([2]; 308.15 K): 951.16 ± 4 kg/m3
mass density ([2]; 313.15 K): 946.49 ± 4 kg/m3
mass density ([2]; 318.15 K): 941.89 ± 4 kg/m3

Reference: the NIST ThermoML archive (doi:10.1016/j.jct.2015.08.040)
